Results published in ChEMBL document CHEMBL3885881, “DrugMatrix”.

Species on record: Rattus norvegicus
Test: DrugMatrix - Regimen: Daily Repeat
Type: toxicity, organism-based, Sprague-Dawley
Design: regimen Daily Repeat, gender Male, age 6-8 weeks
Conditions: in vivo, iv, […], vehicle 100 % SALINE; for ALANINE AMINOTRANSFERASE / ALBUMIN / ALKALINE PHOSPHATASE / ASPARTATE AMINOTRANSFERASE / BLOOD UREA NITROGEN / CARBON DIOXIDE / CHLORIDE / CHOLESTEROL / CREATINE PHOSPHOKINASE / CREATININE / GLUCOSE / LACTATE DEHYDROGENASE / LIPASE / PHOSPHORUS / POTASSIUM / SODIUM / TOTAL BILIRUBIN / TOTAL PROTEIN / URIC ACID: tissue Plasma; for ABSOLUTE BASOPHIL / ABSOLUTE EOSINOPHIL / ABSOLUTE LYMPHOCYTE / ABSOLUTE MONOCYTE / ABSOLUTE SEGMENTED NEUTROPHIL / BASOPHIL / EOSINOPHIL / ERYTHROCYTE COUNT / HEMATOCRIT / HEMOGLOBIN / LEUKOCYTE COUNT / LYMPHOCYTE / MEAN CORPUSCULAR HEMOGLOBIN / MEAN CORPUSCULAR HEMOGLOBIN CONCENTRATION / MEAN CORPUSCULAR VOLUME / MONOCYTE / NEUTROPHIL / NUCLEATED RED BLOOD CELLS / PLATELET COUNT: tissue Blood
[1] = 72 h, dose 0.0033 mg/Kg, dose level Low, time 3 day
[2] = 72 h, dose 0.033 mg/Kg, dose level High, time 3 day
[3] = 120 h, dose 0.0033 mg/Kg, dose level Low, time 5 day
[4] = 120 h, dose 0.033 mg/Kg, dose level High, time 5 day

COc1cc2c3cc1Oc1cc(ccc1O)C[C@@H]1c4c(cc(OC)c(O)c4Oc4ccc(cc4)C[C@@H]3N(C)CC2)CC[N+]1(C)C.[Cl-]
ALANINE AMINOTRANSFERASE [1]: 58 u/L | ALBUMIN [1]: 4.23 G/DL | ALKALINE PHOSPHATASE [1]: 467.33 u/L | ASPARTATE AMINOTRANSFERASE [1]: 94 u/L | BLOOD UREA NITROGEN [1]: 17 mg/dL | CARBON DIOXIDE [1]: 33 mmol/L | CHLORIDE [1]: 101 MEQ/L | CHOLESTEROL [1]: 69.33 mg/dL | CREATINE PHOSPHOKINASE [1]: 839.67 u/L | CREATININE [1]: 0.22 mg/dL | GLUCOSE [1]: 165 mg/dL | LACTATE DEHYDROGENASE [1]: 138 u/L | LIPASE [1]: 8.33 u/L | PHOSPHORUS [1]: 10.83 mg/dL | POTASSIUM [1]: 5.81 MEQ/L | SODIUM [1]: 143.17 MEQ/L | TOTAL BILIRUBIN [1]: 0.2 mg/dL | TOTAL PROTEIN [1]: 5.87 G/DL | URIC ACID [1]: 0.9 mg/dL | ALANINE AMINOTRANSFERASE [2]: 56 u/L | ALBUMIN [2]: 3.97 G/DL | ALKALINE PHOSPHATASE [2]: 312.33 u/L | ASPARTATE AMINOTRANSFERASE [2]: 91.67 u/L | BLOOD UREA NITROGEN [2]: 16.33 mg/dL | CARBON DIOXIDE [2]: 28 mmol/L | CHLORIDE [2]: 101.33 MEQ/L | CHOLESTEROL [2]: 75.33 mg/dL | CREATINE PHOSPHOKINASE [2]: 431.33 u/L | CREATININE [2]: 0.2 mg/dL | GLUCOSE [2]: 169 mg/dL | LACTATE DEHYDROGENASE [2]: 240.33 u/L | LIPASE [2]: 12.67 u/L | PHOSPHORUS [2]: 11.4 mg/dL | POTASSIUM [2]: 5.83 MEQ/L | SODIUM [2]: 141.23 MEQ/L | TOTAL BILIRUBIN [2]: 0.2 mg/dL | TOTAL PROTEIN [2]: 5.67 G/DL | URIC ACID [2]: 1.5 mg/dL | ABSOLUTE BASOPHIL [3]: 0 CELLS/uL | ABSOLUTE EOSINOPHIL [3]: 0 CELLS/uL | ABSOLUTE LYMPHOCYTE [3]: 11354.67 CELLS/uL | ABSOLUTE MONOCYTE [3]: 87 CELLS/uL | ABSOLUTE SEGMENTED NEUTROPHIL [3]: 958.33 CELLS/uL | BASOPHIL [3]: 0% | EOSINOPHIL [3]: 0% | ERYTHROCYTE COUNT [3]: 5.2 x10E6/uL | HEMATOCRIT [3]: 33.13% | HEMOGLOBIN [3]: 13.43 G/DL | LEUKOCYTE COUNT [3]: 12.4 x10E3/uL | LYMPHOCYTE [3]: 91.67% | MEAN CORPUSCULAR HEMOGLOBIN [3]: 25.8 pg | MEAN CORPUSCULAR HEMOGLOBIN CONCENTRATION [3]: 40.53 G/DL | MEAN CORPUSCULAR VOLUME [3]: 63.7 fL | MONOCYTE [3]: 0.67% | NEUTROPHIL [3]: 7.67% | NUCLEATED RED BLOOD CELLS [3]: 0 /100WBC | PLATELET COUNT [3]: 1167.67 x10E3/uL | ABSOLUTE BASOPHIL [4]: 0 CELLS/uL | ABSOLUTE EOSINOPHIL [4]: 146 CELLS/uL | ABSOLUTE LYMPHOCYTE [4]: 11010.33 CELLS/uL | ABSOLUTE MONOCYTE [4]: 173 CELLS/uL | ABSOLUTE SEGMENTED NEUTROPHIL [4]: 1104 CELLS/uL | BASOPHIL [4]: 0% | EOSINOPHIL [4]: 1% | ERYTHROCYTE COUNT [4]: 5.51 x10E6/uL | HEMATOCRIT [4]: 34.03% | HEMOGLOBIN [4]: 13.57 G/DL | LEUKOCYTE COUNT [4]: 12.43 x10E3/uL | LYMPHOCYTE [4]: 88.67% | MEAN CORPUSCULAR HEMOGLOBIN [4]: 24.63 pg | MEAN CORPUSCULAR HEMOGLOBIN CONCENTRATION [4]: 39.87 G/DL | MEAN CORPUSCULAR VOLUME [4]: 61.77 fL | MONOCYTE [4]: 1.33% | NEUTROPHIL [4]: 9% | NUCLEATED RED BLOOD CELLS [4]: 0 /100WBC | PLATELET COUNT [4]: 1282.67 x10E3/uL | ALANINE AMINOTRANSFERASE [3]: 55.67 u/L | ALBUMIN [3]: 4.07 G/DL | ALKALINE PHOSPHATASE [3]: 352.67 u/L | ASPARTATE AMINOTRANSFERASE [3]: 91.67 u/L | BLOOD UREA NITROGEN [3]: 20.67 mg/dL | CARBON DIOXIDE [3]: 28 mmol/L | CHLORIDE [3]: 102.67 MEQ/L | CHOLESTEROL [3]: 72.67 mg/dL | CREATINE PHOSPHOKINASE [3]: 402.33 u/L | CREATININE [3]: 0.22 mg/dL | GLUCOSE [3]: 169 mg/dL | LACTATE DEHYDROGENASE [3]: 354.67 u/L | LIPASE [3]: 10 u/L | PHOSPHORUS [3]: 11.7 mg/dL | POTASSIUM [3]: 6.36 MEQ/L | SODIUM [3]: 144.1 MEQ/L | TOTAL BILIRUBIN [3]: 0.17 mg/dL | TOTAL PROTEIN [3]: 5.8 G/DL | URIC ACID [3]: 1.53 mg/dL | ALANINE AMINOTRANSFERASE [4]: 66.33 u/L | ALBUMIN [4]: 4.17 G/DL | ALKALINE PHOSPHATASE [4]: 366.33 u/L | ASPARTATE AMINOTRANSFERASE [4]: 97.67 u/L | BLOOD UREA NITROGEN [4]: 17.33 mg/dL | CARBON DIOXIDE [4]: 29.33 mmol/L | CHLORIDE [4]: 101.33 MEQ/L | CHOLESTEROL [4]: 68.67 mg/dL | CREATINE PHOSPHOKINASE [4]: 303.67 u/L | CREATININE [4]: 0.15 mg/dL | GLUCOSE [4]: 156.33 mg/dL | LACTATE DEHYDROGENASE [4]: 446 u/L | LIPASE [4]: 10.67 u/L | PHOSPHORUS [4]: 11.53 mg/dL | POTASSIUM [4]: 5.71 MEQ/L | SODIUM [4]: 142.9 MEQ/L | TOTAL BILIRUBIN [4]: 0.2 mg/dL | TOTAL PROTEIN [4]: 5.73 G/DL | URIC ACID [4]: 1.33 mg/dL
